Reference: EP1389624A1, “Phosphorous-containing cysteine and serine protease inhibitors” (CEPHALON, INC., priority 1995, dated 1997)
Structures can show the parent of a compound that is named as a salt. Where two headings read alike, the source gives them in different places.

Target: T1, Calpain I (Homo sapiens, UniProt P07384)
T1 sequence (P07384 1-714): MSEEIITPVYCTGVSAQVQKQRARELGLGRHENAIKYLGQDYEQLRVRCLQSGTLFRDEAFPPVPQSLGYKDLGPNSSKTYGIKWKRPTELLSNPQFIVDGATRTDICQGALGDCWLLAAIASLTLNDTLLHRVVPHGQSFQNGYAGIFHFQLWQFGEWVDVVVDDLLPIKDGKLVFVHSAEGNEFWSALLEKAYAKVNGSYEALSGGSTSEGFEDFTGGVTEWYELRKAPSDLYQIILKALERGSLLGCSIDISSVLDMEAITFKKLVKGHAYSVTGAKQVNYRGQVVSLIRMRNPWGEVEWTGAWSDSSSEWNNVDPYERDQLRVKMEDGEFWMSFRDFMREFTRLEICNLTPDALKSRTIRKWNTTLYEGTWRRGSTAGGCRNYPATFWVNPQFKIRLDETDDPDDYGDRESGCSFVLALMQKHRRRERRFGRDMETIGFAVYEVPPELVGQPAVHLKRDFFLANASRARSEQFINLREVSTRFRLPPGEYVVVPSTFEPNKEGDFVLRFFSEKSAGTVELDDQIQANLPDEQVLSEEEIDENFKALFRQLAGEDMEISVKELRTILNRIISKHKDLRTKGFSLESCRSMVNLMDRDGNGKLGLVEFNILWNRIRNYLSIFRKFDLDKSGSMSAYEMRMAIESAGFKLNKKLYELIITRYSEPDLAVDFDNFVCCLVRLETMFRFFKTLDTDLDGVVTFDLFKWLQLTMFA
T1 sequence (P04632 1-268 partner): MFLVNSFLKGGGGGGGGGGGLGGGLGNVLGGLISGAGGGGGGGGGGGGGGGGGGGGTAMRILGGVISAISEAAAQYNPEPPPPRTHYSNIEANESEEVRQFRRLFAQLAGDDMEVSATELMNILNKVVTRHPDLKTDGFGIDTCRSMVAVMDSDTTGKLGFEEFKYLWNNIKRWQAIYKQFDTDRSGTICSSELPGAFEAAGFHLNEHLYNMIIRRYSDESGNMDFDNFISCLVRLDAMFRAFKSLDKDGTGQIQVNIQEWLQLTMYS
Assay: Inhibition and rate of inactivation of cysteine protease (calpain I) activity, Succ-Leu-Tyr-MNA substrate hydrolysis
Settings: for kinact/KI: read-out: kobs/I x 10^-3 M^-1s^-1; for inhibition at 0.1 µM: read-out: % Inhib. @ 0.1 uM

[1] = apparent second order rate constant of inactivation from reaction progress curves under pseudo-first order conditions, mean of three or more determinations

Protocol: To evaluate inhibitory activity, stock solutions (40 times concentrated) of each compound to be tested were prepared in 100% anhydrous DMSO and 5 µl of each inhibitor preparation were aliquoted into each of three wells of a 96 well plate. […] To start the reaction, 20 µl of 50 mM CaCl2 in assay buffer was added to all wells of the plate, excepting three, which were used as background signal baseline controls. Substrate hydrolysis was monitored every 5 minutes for a total of 30 minutes. Substrate hydrolysis in the absence of inhibitor was linear for up to 15 minutes.
Inhibition of calpain I activity was calculated as the percent decrease in the rate of substrate hydrolysis in the presence of inhibitor (vi) relative to the rate in its absence (vo). Comparison between vo and vi was made within the linear range for substrate hydrolysis. […] Apparent second order rate constants were determined from analysis of reaction progress curves under pseudo-first order conditions. Each determination represents the mean of three or more independent single cuvette analyses continually monitored via a Perkin-Elmer LS50B spectrofluorimeter.

| SMILES | kinact/KI [M⁻¹ s⁻¹] | inhibition at 0.1 µM [%] | further results |
| --- | --- | --- | --- |
| CC(C)C[C@H](NC(=O)OCc1ccccc1)C(=O)N[C@@H](Cc1ccccc1)C(=O)COP(=O)(OCc1ccccc1)OCc1ccccc1 [Example 34, Dibenzyl (3S)-[3-[(N-Benzyloxycarbonyl-L-leucyl)amino]-2-oxo-4-phenylbutyl] phosphate] | 100000 | – | – |
| CC(C)C[C@H](NC(=O)OC(C)(C)C)C(=O)N[C@@H](Cc1ccccc1)C(=O)COP(=O)(OCc1ccccc1)OCc1ccccc1 [Example 35, Dibenzyl (3S)-[3-[(N-t-Butoxycarbonyl-L-leucyl)amino]-2-oxo-4-phenylbutyl] phosphate] | 242000 | 100 | – |
| CC(C)CC(NC(=O)C12OC3COC(C)(C)OC3C1OC(C)(C)O2)C(=O)NC(Cc1ccccc1)C(=O)COP(=O)(OCc1ccccc1)OCc1ccccc1 [Example 37, Dibenzyl (3S)-[3-[(N-diisopropylidine-2-keto-L-gulonyl-L-leucyl)amino)-2-oxo-4-phenylbutyl] phosphate] | – | – | kobs/I x 10^-3 M^-1s^-1: 113 x 10^-3 M^-1s^-1 |
| CC(C)C[C@H](NC(=O)C12OC(CO)C(O)C1OC(C)(C)O2)C(=O)N[C@@H](Cc1ccccc1)C(=O)COP(=O)(OCc1ccccc1)OCc1ccccc1 (stereo partly drawn) [Example 38, Dibenzyl (3S)-[3-[(N-monoisopropylidine-2-keto-L-gulonyl-L-leucyl)amino]-2-oxo-4-phenylbutyl] phosphate] | – | – | kobs/I x 10^-3 M^-1s^-1 [1]: 116 x 10^-3 M^-1s^-1 |
| Cc1ccccc1COP(=O)(OCC(=O)[C@H](Cc1ccccc1)NC(=O)[C@H](CC(C)C)NC(=O)OCc1ccccc1)OCc1ccccc1C [Example 39, Bis(2-methylbenzyl) (3S)-[3-[(N-Benzyloxycarbonyl-L-leucyl)amino]-2-oxo-4-phenylbutyl] phosphate] | 365000 | – | – |
| CC(C)C[C@H](NC(=O)OCc1ccccc1)C(=O)N[C@@H](Cc1ccccc1)C(=O)COP(=O)(OCc1cccc(Oc2ccccc2)c1)OCc1cccc(Oc2ccccc2)c1 [Example 40, Bis(3-phenoxybenzyl) (3S)-[3-[(N-Benzyloxycarbonyl-L-leucyl)amino]-2-oxo-4-phenylbutyl] phosphate] | – | 53 | – |
| CC(C)C[C@H](NC(=O)OC(C)(C)C)C(=O)N[C@@H](Cc1ccccc1)C(=O)COP(=O)(O)O [Example 41, Dihydrogen (3S)-[3-[(N-t-Butoxycarbonyl-L-leucyl)amino]-2-oxo-4-phenylbutyl] phosphate] | < 20000 | 7 | – |
| COP(=O)(OC)OCC(=O)[C@H](Cc1ccccc1)NC(=O)[C@H](CC(C)C)NC(=O)OCc1ccccc1 [Example 42, Dimethyl (3S)-[3-[(N-Benzyloxycarbonyl-L-leucyl)amino]-2-oxo-4-phenylbutyl] phosphate] | 20000 | – | – |
| CCCCOP(=O)(OCCCC)OCC(=O)[C@H](Cc1ccccc1)NC(=O)[C@H](CC(C)C)NC(=O)OCc1ccccc1 [Example 43, Dibutyl (3S)-[3-[(N-Benzyloxycarbonyl-L-leucyl)amino]-2-oxo-4-phenylbutyl] phosphate] | 40000 | – | – |
| CCCCC(CC)COP(=O)(OCC(=O)[C@H](Cc1ccccc1)NC(=O)[C@H](CC(C)C)NC(=O)OCc1ccccc1)OCC(CC)CCCC (stereo partly drawn) [Example 44, Bis(2-ethylhexyl) (3S)-[3-[(N-Benzyloxycarbonyl-L-leucyl)amino]-2-oxo-4-phenylbutyl] phosphate] | 1000 | – | – |
| CC(C)C[C@H](NC(=O)OC(C)(C)C)C(=O)N[C@@H](Cc1ccccc1)C(=O)COP(=O)(OCCC1CCCCC1)OCCC1CCCCC1 [Example 45, Bis(2-cyclohexylethyl) (3S)-[3-[(N-t-Butoxycarbonyl-L-leucyl)amino]-2-oxo-4-phenylbutyl] phosphate] | – | 28 | – |
| CC(C)C[C@H](NC(=O)OCc1ccccc1)C(=O)N[C@@H](Cc1ccccc1)C(=O)COP(=O)(OCCc1ccccc1)OCCc1ccccc1 [Example 46, Diphenethyl (3S)-[3-[(N-Benzyloxycarbonyl-L-leucyl)amino]-2-oxo-4-phenylbutyl] phosphate] | 380000 | 99 | – |
| CC(C)C[C@H](NC(=O)OCc1ccccc1)C(=O)N[C@@H](Cc1ccccc1)C(=O)COP1(=O)OCC(OCc2ccccc2)CO1 (some centres unmarked) [Example 47] | – | 47 | – |
| CC(C)C[C@H](NC(=O)OCc1ccccc1)C(=O)N[C@@H](Cc1ccccc1)C(=O)COP(=O)(OCc1ccccc1)c1ccccc1 (stereo partly drawn) [Example 49, Benzyl (3S)-[3-[(N-Benzyloxycarbonyl-L-leucyl)amino]-2-oxo-4-phenylbutyl]phenylphosphonate] | – | 90 | – |
| CC(C)C[C@H](NC(=O)OCc1ccccc1)C(=O)N[C@@H](Cc1ccccc1)C(=O)COP(=O)(OCCN1CCOCC1)c1ccccc1 (stereo partly drawn) [Example 50, 2-(Morpholin-4-yl)ethyl (3S)-[3-[(N-benzyloxycarbonyl-L-leucyl)amino]-2-oxo-4-phenylbutyl] phenylphosphonate hydrochloride] | 70000 | – | – |
| CC(C)C[C@H](NC(=O)OCc1ccccc1)C(=O)N[C@@H](Cc1ccccc1)C(=O)COP(=O)(OCCN1CCCC1=O)c1ccccc1 (stereo partly drawn) [Example 51, (3S)-[3-[(N-Benzyloxycarbonyl-L-leucyl)amino]-2-oxo-4-phenylbutyl] 2-(2-oxopyrrolidin-1-yl)ethyl phenylphosphonate] | 26000 | – | – |
| CC(C)C[C@H](NC(=O)OCc1ccccc1)C(=O)N[C@@H](Cc1ccccc1)C(=O)COP(C)(C)=O [Example 52, (3S)-[3-[(N-Benzyloxycarbonyl-L-leucyl)amino]-2-oxo-4-phenylbutyl] dimethylphosphinate] | 6000 | – | – |
| CCCCCP(=O)(CCCCC)OCC(=O)[C@H](Cc1ccccc1)NC(=O)[C@H](CC(C)C)NC(=O)OCc1ccccc1 [Example 53, (3S)-[3-[(N-Benzyloxycarbonyl-L-leucyl)amino]-2-oxo-4-phenylbutyl] dipentylphosphinate] | – | 19 | – |
| CC(C)C[C@H](NC(=O)OCc1ccccc1)C(=O)N[C@@H](Cc1ccccc1)C(=O)COP(=O)(CCc1ccccc1)CCc1ccccc1 [Example 54, (3S)-[3-[(N-Benzyloxycarbonyl-L-leucyl)amino]-2-oxo-4-phenylbutyl] bis(2-phenylethyl)phosphinate] | 8000 | 15 | – |
| Cc1ccccc1P(=O)(OCC(=O)[C@H](Cc1ccccc1)NC(=O)[C@H](CC(C)C)NC(=O)OCc1ccccc1)c1ccccc1C [Example 55, (3S)-[3-[(N-Benzyloxycarbonyl-L-leucyl)amino]-2-oxo-4-phenylbutyl] bis(2-methylphenyl)phosphinate] | 31000 | – | – |
| Cc1ccccc1P(=O)(OCC(=O)[C@H](Cc1ccccc1)NC(=O)[C@H](CC(C)C)NC(=O)OC(C)(C)C)c1ccccc1C [Example 56, (3S)-[3-[(N-t-Butoxycarbonyl-L-leucyl)amino]-2-oxo-4-phenylbutyl] bis(2-methylphenyl)phosphinate] | 22000 | – | – |
| COc1ccc(P(=O)(OCC(=O)[C@H](Cc2ccccc2)NC(=O)[C@H](CC(C)C)NC(=O)OCc2ccccc2)c2ccc(OC)cc2)cc1 [Example 57, (3S)-[3-[(N-Benzyloxycarbonyl-L-leucyl)amino]-2-oxo-4-phenylbutyl] bis(4-methoxyphenyl)phosphinate] | 85000 | 85 | – |
| COc1ccccc1P(=O)(OCC(=O)[C@H](Cc1ccccc1)NC(=O)[C@H](CC(C)C)NC(=O)OCc1ccccc1)c1ccccc1 (stereo partly drawn) [Example 58, (3S)-[3-[(N-Benzyloxycarbonyl-L-leucyl)amino]-2-oxo-4-phenylbutyl] (2-methoxyphenyl)(phenyl)phosphinate] | 150000 | – | – |
| COc1cccc(P(=O)(OCC(=O)[C@H](Cc2ccccc2)NC(=O)[C@H](CC(C)C)NC(=O)OCc2ccccc2)c2ccccc2)c1 (stereo partly drawn) [Example 59, (3S)-[3-[(N-Benzyloxycarbonyl-L-leucyl)amino]-2-oxo-4-phenylbutyl] (3-methoxylphenyl)(phenyl)phosphinate] | 163000 | – | – |
| CCP(=O)(OCC(=O)[C@H](Cc1ccccc1)NC(=O)[C@H](CC(C)C)NC(=O)OCc1ccccc1)c1ccccc1 (stereo partly drawn) [Example 60, (3S)-[3-[(N-Benzyloxycarbonyl-L-leucyl)amino]-2-oxo-4-phenylbutyl] (ethyl) (phenyl)phosphinate] | – | 51 | kobs/I x 10^-3 M^-1s^-1 [1]: 6 x 10^-3 M^-1s^-1 |
| CC(C)C[C@H](NC(=O)OCc1ccccc1)C(=O)N[C@@H](Cc1ccccc1)C(=O)COP1(=O)CC=CC1 [Example 63, (3S)-1-[[3-[(N-Benzyloxycarbonyl-L-leucyl)amino]-2-oxo-4-phenylbutyl]oxy]phosphol-3-ene 1-oxide] | – | 22 | – |
